Here are results for 5 molecules from paper PMC5088049 (Pharmacogenetics and genomics, 2016).

In series [1] the target is T1, AKR1C2 Phe46Tyr (Homo sapiens, UniProt P52895, F46Y).
T1 sequence (P52895 1-323 F46Y): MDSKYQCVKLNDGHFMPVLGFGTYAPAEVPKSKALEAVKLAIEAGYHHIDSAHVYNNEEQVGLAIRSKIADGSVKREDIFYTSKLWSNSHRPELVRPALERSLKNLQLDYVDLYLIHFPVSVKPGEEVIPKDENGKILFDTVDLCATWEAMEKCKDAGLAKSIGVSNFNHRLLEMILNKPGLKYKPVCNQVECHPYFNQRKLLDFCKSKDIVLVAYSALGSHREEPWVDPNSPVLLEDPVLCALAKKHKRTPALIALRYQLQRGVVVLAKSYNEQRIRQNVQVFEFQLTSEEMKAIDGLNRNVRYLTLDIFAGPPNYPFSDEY
To be noted: relative to wildtype AKR1C2; cited from earlier work.

Series [2] has as its target T1, AKR1C2 Phe46Tyr. As to conditions: cited from earlier work.
In series [3] the target is T2, aromatase (Homo sapiens, UniProt P11511).
T2 sequence (P11511 1-503): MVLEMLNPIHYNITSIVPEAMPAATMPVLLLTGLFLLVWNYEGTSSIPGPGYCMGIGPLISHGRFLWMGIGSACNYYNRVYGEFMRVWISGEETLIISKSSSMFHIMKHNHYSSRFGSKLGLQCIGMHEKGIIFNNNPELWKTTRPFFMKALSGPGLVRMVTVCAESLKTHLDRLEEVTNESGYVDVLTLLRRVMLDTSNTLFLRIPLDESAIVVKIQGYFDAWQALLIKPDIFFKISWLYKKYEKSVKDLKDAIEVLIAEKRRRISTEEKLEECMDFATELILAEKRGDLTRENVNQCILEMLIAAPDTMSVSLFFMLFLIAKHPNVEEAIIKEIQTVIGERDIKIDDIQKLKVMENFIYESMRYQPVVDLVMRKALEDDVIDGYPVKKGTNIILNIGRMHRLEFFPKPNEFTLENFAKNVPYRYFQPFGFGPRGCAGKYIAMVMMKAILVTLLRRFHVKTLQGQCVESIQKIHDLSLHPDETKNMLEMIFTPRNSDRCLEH
In words: Inhibition of aromatase-mediated estrogen formation. It is filed as biochemical. As to conditions: unpublished observations.

Series [4] deals with T2, aromatase. As to conditions: aromatase-mediated estrogen formation; cited from earlier work.
The conditions of series [5]: cited from earlier work.
Substrate in the series “not read”: C=C1C[C@@H]2[C@H](CC[C@]3(C)C(=O)CC[C@@H]23)[C@@]2(C)C=CC(=O)C=C12
The series is described as follows: not read. To be noted: other: AKR1C2 Phe46Tyr (rs2854482); 17β-DHE formation; 37.0 °C.

`OC1Cc2cccc3cccc1c23` (stereo not shown) [1-acenaphthenol]: the “decrease in overall AKR1C2 activity by Phe46Tyr substitution” value on AKR1C2 Phe46Tyr [1] is listed as “approximately 30%”. Consider `C[C@]12CCC(=O)C[C@@H]1CC[C@@H]1[C@@H]2CC[C@]2(C)[C@@H](O)CC[C@@H]12` [5α-DHT], for which the “decrease in VMAX for reduction relative to wildtype enzyme” value on AKR1C2 Phe46Tyr [2] was 40%. Take `C=C1C[C@H]2[C@@H]3CC[C@@H](O)[C@@]3(C)CC[C@@H]2[C@@]2(C)C=CC(=O)C=C12` [17α-DHE, 17α-dihydroexemestane]: the aromatase-inhibiting properties entry at aromatase [3] is reported as “no appreciable aromatase-inhibiting properties”. As for `C=C1C[C@H]2[C@@H]3CC[C@H](O)[C@@]3(C)CC[C@@H]2[C@@]2(C)C=CC(=O)C=C12` [17β-DHE, 17β-dihydroexemestane], the aromatase inhibition potency entry at aromatase [4] was “potency similar to its parent compound EXE”. For the same molecule, the “17β-DHE concentration relative to parent drug in plasma” value in series [5] (healthy individuals taking EXE) was 35–40%. Further, the “variation of amount of 17β-DHE relative to EXE in human plasma” value in series [5] (pool of three participants) was “five-fold”.

B1: AKR1C2 Phe46Tyr (Homo sapiens; F46Y) (protein)
chain: T1 sequence (P52895 1-323 F46Y)
Consider B1, for which the Km in the series “not read” was 13.5 ± 2.8 µM.

A word on the Km: it is the substrate concentration at which the rate is half of its maximum.
